Measured values: PubChem BioAssay AID179 (DTP/NCI, 2004)
pEC50, pIC50: −log10 of the molar value. Active and inactive are the calls of the source.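 Rule for the calls: active = compounds giving half or more protection of infected cells from virus-caused growth loss, again on retest; inactive = the rest.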

Test system: CEM cells HIV-1 protection, formazan growth assay
Assay: NCI AIDS Antiviral Assay
Settings: for pIC50: measured here: growth of uninfected CEM cells
How it was run: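 Human CEM cells, uninfected and HIV-1-infected, exposed to five drug concentrations; growth measured by soluble formazan assay and scored as percent protection from infection, with protecting compounds retested.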

| SMILES | pEC50 | pIC50 | outcome |
| --- | --- | --- | --- |
| COC(=O)[C@]1(C)CC[C@]2(C)CC[C@]3(C)C4CC[C@@]5(COC(C)=O)C(CCC(=O)[C@@H]5C)[C@]4(C)CCC3(C)[C@@H]2C1 (some centres undefined) | < 4.47 | 4.80 | – |
| COC(=O)c1cc(Cc2cc(Br)c(OC)c(C(=O)OC)c2)cc(Br)c1OC | < 3.70 | 3.79 | – |
| Cn1c(=O)c2[nH]c(Nc3ccccc3)nc2n(C)c1=O | < 3.70 | 3.92 | – |
| O=C(C(c1ccccc1)c1ccccc1)C(O)(c1ccccc1)c1ccccc1 | 4.51 | 4.46 | – |
| O=C(Nc1nc2ccccc2n1Cc1ccc(Cl)cc1)NC12CC3CC(CC(C3)C1)C2 | < 3.70 | < 3.70 | – |
| COc1cc(/C=C/C(=O)/C=C/c2cc(OC)c(OC)c(OC)c2)cc(OC)c1OC | < 3.70 | 7.01 | – |
| O=C(/C=C/c1ccccc1Cl)c1ccc(Cl)c(Cl)c1 | < 5.06 | < 5.06 | – |
| CCOC(=O)C(=O)Nc1ccccc1C(F)(F)F | < 3.44 | < 3.44 | – |
| CC1=C2CCC(O)CC2(C)C(O)C1C (centres undefined) | – | – | inactive |
| CN1C(=S)N2CCCCCCCC2C(C#N)=C1N (centres undefined) | < 3.70 | < 3.70 | – |
| CCOC(=O)c1cc(C(=O)c2ccccc2)n2nc(-c3ccc(Cl)cc3)ccc12 | < 4.30 | < 4.30 | – |
| COc1cc2c3c(cccc3c1)C(=O)N(CCN1CCCC1)C2=O | < 3.70 | 5.61 | – |
| CC1C=CN(N(C)C)C2=C1C(=O)c1cnccc1C2=O (centres undefined) | < 4.70 | 5.91 | – |
| CC(=O)Nc1ccc(C(=O)N2N=C(C)/C(=C/c3ccccc3O)C2=O)cc1 | < 4.29 | < 4.29 | – |
| CCN(CC)CCN(CC)CC(=O)Nc1ccccc1Cl | < 3.70 | < 3.70 | – |
| Cc1c2c(oc(=O)c1NC(=O)c1ccccc1)CCCCCC2 | < 3.70 | < 3.70 | – |
| O=C1c2scc(-c3ccc(F)cc3)c2-n2cccc21 | < 3.70 | 4.52 | – |
| C=C(c1ccc(OC)cc1)C(CC)c1ccc(OC)cc1 (centres undefined) | < 3.70 | 4.43 | – |
| O=c1c2cccc3c4ccccc4c4sc5ccccc5n1-c4c23 | < 4.94 | < 4.94 | – |
| NC(=O)N/N=C1/CCCC/C1=C\c1ccccc1 | – | – | inactive |
| CN/N=C(/Cc1occc(=O)c1O)C(=O)Nc1ccccc1C | < 3.10 | 3.14 | – |
| CCCCCC(C)(O)C1=NCCN1 (centres undefined) | < 3.70 | < 3.70 | – |
| Cc1nc2c(=O)n(C)ncc2[nH]1 | < 3.70 | < 3.70 | – |

| SMILES | pEC50 | pIC50 | outcome |
| --- | --- | --- | --- |
| CC(=O)OC1C(CNC(=O)N(C)N=O)OC(OC2(CNC(=O)N(C)N=O)OC(CNC(=O)N(C)N=O)C(OC(C)=O)C2OC(C)=O)C(OC(C)=O)C1OC(C)=O (centres undefined) | < 4.56 | < 4.56 | – |
| CN(C)NC(=S)Nc1ccccc1Br | < 3.70 | < 3.70 | – |
| CC(C)=CCC/C(C)=C/CC/C(C)=C/C(O)c1ccccc1 (centres undefined) | < 4.30 | < 4.30 | – |
| CN(C)CCCN1C(=O)N(CCCN(C)C)c2c3cc(O)ccc3nc3c([N+](=O)[O-])ccc1c23 | < 3.70 | 6.01 | – |
| CCOC(=O)/C=C1\Oc2ccccc2C1(C)O (centres undefined) | < 3.25 | < 3.25 | – |
| COC(=O)C1=C(C(=O)OC)P2(C)(C)SC(=S)N2C1(c1ccccc1)c1ccccc1 | < 3.70 | < 3.70 | – |
| Cc1ccc([N+](=O)[O-])cc1NC(=O)/C(CC(=O)c1sc(C(N)=S)nc1C)=N\N | – | – | inactive |
| O=C1OC2OC3OC(=O)C4C3CC2C14 (centres undefined) | < 3.59 | < 3.59 | – |
| Cc1cccc(/C=N/NC(=S)NCc2ccccn2)n1 | < 3.70 | 4.53 | – |
| c1ccc(CSC(SCc2ccccc2)c2cccc3ccccc23)cc1 | 5.23 | < 3.70 | – |
| CCOC(=O)/C(C1=NCCN1C)=C(\O)c1ccccc1 | < 3.04 | < 3.04 | – |
| CSc1ccc(C(=O)C(=O)c2ccc(SC)s2)s1 | < 3.70 | 3.81 | – |
| CC(=O)Nc1ccccc1Sc1ccccc1 | < 3.61 | 4.16 | – |
| COc1ccc2c(c1)CCc1c(C(C)=O)c3ccccc3n1C2 | < 4.23 | < 4.23 | – |
| C#CCOC(=O)C(=[N+]=[N-])C(=O)CC(C)C | < 3.70 | < 3.70 | – |
| Cc1cc(S(=O)(=O)n2ccnc2Oc2cccc(Cl)c2)c(SSc2cc(Cl)c(C)cc2S(=O)(=O)n2ccnc2Oc2cccc(Cl)c2)cc1Cl | 5.09 | 4.86 | – |
| Cc1cccc2ns[s+]c12 | < 4.73 | < 4.73 | – |
| CCN(CC)C(=O)C(C)=O | < 2.76 | < 2.76 | – |
| Ic1ccc(SSc2ccc(I)cc2)cc1 | < 3.70 | 5.18 | – |
| Brc1ccc2c(c1)C1(c3cc(Br)ccc3-2)c2cc(Br)ccc2-c2ccc(Br)cc21 | < 4.39 | < 4.39 | – |
| Cc1cc(/C=C/c2cc[n+](C)c3ccccc23)c(O)c2ncccc12 | < 3.40 | 6.12 | – |
| Cc1cccc(C)c1N1C(=O)C(=O)C(c2nc3ccccc3s2)/C(=N/NC(=O)NN)C1=O (centres undefined) | – | – | inactive |
| O=P(O)(O)CCCNO | < 3.70 | < 3.70 | – |

| SMILES | pEC50 | pIC50 | outcome |
| --- | --- | --- | --- |
| O=c1[nH]nc(Cc2ccccc2)[nH]1 | < 3.70 | < 3.70 | – |
| Cc1cc(C=O)c(C)c2c1[nH]c1ccccc12 | < 3.70 | 5.12 | – |
| NC(=O)c1ncn(C2CCC(CP(=O)(O)O)C2)c1N (centres undefined) | < 3.70 | < 3.70 | – |
| CN1CCOC(C(NC(=O)c2ccccc2)c2ccccc2)C1=O (centres undefined) | < 3.70 | < 3.70 | – |
| CN(CCc1ccccn1)/[N+]([O-])=N/O (tested in a mixture with another compound) | < 2.33 | 2.46 | – |
| CCCCCCCCCCCCCC(=O)OCC1OC(n2cc(F)c(=O)[nH]c2=O)C(N)C(OC(=O)CCCCCCCCCCCCC)C1O (centres undefined) | < 5.13 | < 5.13 | – |
| O=C(C=C1SCCS1)/C=C\c1ccc(Cl)cc1 | < 4.45 | < 4.45 | – |
| CC1(C)O[C@H]2OC(CO)C(OS(C)(=O)=O)[C@H]2O1 (some centres undefined) | < 3.70 | < 3.70 | – |
| COc1ccc2nc3nc(-c4ccccc4)c(-c4ccccc4)nc3nc2c1 | 7.09 | 5.40 | – |
| O=C1NC(=NC2CCCCC2)C2(CCN(CCCC3(c4ccc(F)cc4)OCCO3)CC2)N1c1ccccc1 | < 3.70 | 3.99 | – |
| O=C1NN2CCN=C2c2cnccc21 | < 2.88 | < 2.88 | – |
| COCOc1ccc(Cn2c(=O)n(C)c(=O)c3c2ncn3C)cc1[N+](=O)[O-] | < 4.30 | < 4.30 | – |
| CCCCCCCCCCCCn1[nH]c(C)c(C(=S)SCCCCCCCC)c1=O | < 4.24 | 4.25 | – |
| COc1c(-c2cccs2)oc2c(CC(=O)O)cccc2c1=O | < 3.70 | 4.04 | – |
| O=S(=O)(O)c1ccc2c(c1)Sc1cc(S(=O)(=O)O)ccc1O2 | – | – | inactive |
| Nc1cccc2cc(Cl)cnc12 | < 3.70 | < 3.70 | – |
| O=[N+]1ON=C(c2ccccc2)C1=C1C(c2c(-c3ccccc3)no[n+]2[O-])=NON1[O-] | < 3.70 | 5.22 | – |
| O=C1c2ccccc2C(=O)N1C/C=N/NS(=O)(=O)c1ccc(Br)cc1 | < 3.95 | < 3.95 | – |
| C=CCCCCCCCCCP(=O)(c1ccccc1)c1ccc2c(c1)OCCOCCOCCOCCO2 (centres undefined) | < 3.70 | 5.77 | – |
| COc1ccccc1C(=O)N(Cc1ccccc1)c1ccc(Cl)c(C(=O)OC(C)C)c1 | < 4.71 | 4.81 | – |
| Nc1nnnn1NC(=O)NCCCl | < 3.70 | < 3.70 | – |
